Row | Compound | melting point [°C]
1 | O=C(c1ccc(Cl)cc1)[C@H]1C[C@H]1C(=O)N1CCC(N2Cc3ccccc3NC2=O)CC1 (relative stereo) | 272 to 273
2 | O=C1c2cccc([N+](=O)[O-])c2C(=O)N1c1ccc(OC(F)(F)F)cc1 | 149 to 150
3 | Cc1ccc(-c2c(Cl)nc(-c3cccs3)nc2Cl)cc1 | 120
4 | Cc1cc(F)ccc1-c1cc(N2CCSCC2)ncc1C(N)=O | 198 to 202
5 | COc1ccc(-c2cncn2-c2ccc(S(C)(=O)=O)cc2)cc1 | 185 to 187
6 | CCC12CCC3c4ccc(OC)cc4CCC3C1CC(=CN(C)C)C2=O (stereo unspecified) | 157 to 159
7 | CCCCS(=O)(=O)Nc1ccccc1COc1cccc2cccnc12 | 88 to 89
8 | CN(C)CCN(c1ccc(N)cc1)S(C)(=O)=O | 147 to 148
9 | COCCNC(=O)c1cc(-c2ccccc2)c(=O)n2ccc3ccsc3c12 | 201 to 202
10 | CCCC(O)P(=O)(O)CCCN (stereo unspecified) | 188
11 | CON(C)C(=O)Nc1ccc(OCCc2ccc(C)cc2)cc1 | 82 to 83
12 | CC1C(=NO)SCC(=O)N1C (stereo unspecified) | 205
13 | Cn1ncc2c(c1=O)SCCNC2Cc1ccccc1 (stereo unspecified) | 108 to 109
14 | O=C(O)c1sccc1C(F)F | 119 to 120
15 | CC1(OC(=O)c2ncn3c2C2CCCN2C(=O)c2c(Cl)cccc2-3)CCCC1 (stereo unspecified) | 190 to 191
16 | O=C(O)C1C(c2ccc3c(c2)OCO3)c2ccccc2C1c1ccc2c(c1)OCO2 (racemic) | 182 to 185
17 | C=C(C(=O)O)c1ccc2c(=O)c3ccccc3ccc2c1 | 232 to 235
18 | COc1cc(C(=O)O)ccc1NC(=O)OC(C)(C)C | 176 to 178
19 | Cc1cc(=O)[nH]c2ccc(OCCCN3CCN(Cc4ccc(Cl)cc4)CC3)cc12 | 195 to 197
20 | CC(CC#CC(C)(C)O[Si](C)(C)C(C)(C)C)C1=CCC2C3=CC=C4CC(O[Si](C)(C)C(C)(C)C(C)C)CCC4(C)C3CCC12C (stereo unspecified) | 62 to 66
21 | O=C(O)CCCS(=O)(=O)c1ccccc1 | 94 to 95
22 | Cc1ccc(S(=O)(=O)N2CCC[C@H](CC#N)c3ccccc32)cc1 | 106
23 | N#Cc1c(N)n[nH]c1N1CCN(Cc2ccccc2)CC1 | 157 to 158
24 | COc1cc(C2CCCCC2)c(Cl)cc1CCO | 78 to 79
25 | COC(=O)NNC(=S)Cc1ccc2ccccc2c1 | 129 to 131
26 | COC(=O)c1ccc(C=C2CCn3c2nc2cc(N)ccc2c3=O)cc1 | 292 to 295

Row | Compound | melting point [°C]
27 | Fc1ccc(-c2ncc(Br)cn2)cc1 | 156
28 | Cc1cc2ccccc2cc1C=O | 119
29 | O=[N+]([O-])c1ccc(CSCc2c[nH]cn2)cc1 | 88
30 | CC(=O)Oc1ccc(O[C@@H]2CCN(C)C[C@H]2c2ccccc2)cc1 (relative stereo) | 79.5 to 82
31 | CCCCOCCOc1ccc(-c2ccc3c(c2)C=C(C(=O)Nc2ccc(SCc4ncon4)cc2)CCN3CC(C)C)cc1 | 112 to 115
32 | O=C(Nc1cc(C(F)(F)F)cc2ncn(-c3ccccc3)c12)c1ccccc1 | 152 to 155
33 | CCCc1ccc(C(=O)O)c(F)c1F | 69
34 | CC(C)Cc1cc([N+](=O)[O-])c2c(c1O)C(=O)c1c(O)c(CC(C)C)cc([N+](=O)[O-])c1C2=O | 198 to 200
35 | Cn1cc2c(n1)-c1sccc1N(C(=O)c1ccc(NC(=O)C3CCCCC3)cc1)CC2 | 240 to 242
36 | CCC(CC)Oc1ccc(-n2cc(C(=O)O)cn2)cc1C#N | 142 to 144
37 | COC(=O)C(=O)c1ccnc(NC=O)n1 | 143 to 144
38 | O=C(/C=C/c1ccc2ccccc2c1)N1CCOC1=O | 121 to 123
39 | COc1ccc(-c2nc3cccc(C(N)=O)c3[nH]2)cc1 | 261 to 263
40 | CC(C)N1C(=O)CO[C@@H]2c3cc(F)ccc3OCC[C@H]21 (relative stereo) | 127 to 143
41 | COc1cc2cc(CO)c(CO)c(-c3ccnc(-n4c(=O)cc(C(=O)N(CCO)CCO)c5ccccc54)c3)c2cc1OC | 65 to 68
42 | COc1cc(C=C2C(=O)CCc3cc(Cl)ccc32)c([N+](=O)[O-])cc1OC | 56 to 58
43 | CN(Cc1ccc2c(Br)c(OCC#N)ccc2c1)C(=O)c1oc2ccccc2c1CCc1ccccc1 | 51 to 55
44 | O=C1COc2cc(Nc3ccc(O)cc3)ccc2N1 | 270 to 275
45 | C=CCOC(=O)Cc1cccc(NC(=O)NCC(=O)N(CC(=O)OC(C)(C)C)c2ccccc2C(=O)c2ccccc2)c1 | 122 to 124
46 | N#CCc1cc(O)cc2cc(-c3ccc(O)c(F)c3)oc12 | 242 to 244
47 | CC(C)Oc1cc(CCC(=O)NS(=O)(=O)C(C)C)n(Cc2ccc(Cl)cc2Cl)n1 | 135 to 136
48 | O=[N+]([O-])c1cn(C2OC(CO)C(O)C2O)nn1 (stereo unspecified) | 172 to 174
49 | COc1ccc(N2CC(CN3CCC(O)(c4ccccc4)CC3)OC2=O)cc1 (stereo unspecified) | 141 to 143
50 | CCOc1cc(NC(=O)NS(=O)(=O)c2ccc(C)cc2)ccn1 | 146 to 148
51 | Cc1cc(-n2cnc(CO)c2)ccc1C(C)C | 98 to 102
